{
  "source": "patent US8133471B2",
  "about": "“CLK-peptide and SLK-peptide” (New York University, priority 2003, dated 2012)",
  "key": {"[1]": {"tested_on": "GL261 tumor cells", "experiment": "GL261 cell migration, CLK-peptide combined with ionizing radiation (Example 22)", "type": "cell-based, murine", "settings": "50 μg/ml + 5.0 Gy; 6 hours; versus controls", "description": "The effects, of combining CLK-peptide with radiation therapy, on invasive tumor cell migration are examined. GL261 cells are resuspended in migration buffer in the presence or absence of CLK-peptide or control (50 μg/ml). The cells are added to the coated wells and allowed to incubate for 1 hour, and either left untreated or irradiated with a single fraction dose of ionizing radiation (5.0 Gy). The GL261 tumor cells are allowed to migrate for 6 hours. Tumor cells that have migrated to the underside of the coated membranes are quantified by staining with crystal violet, and the optical densities of cell-associated dye are measured with a microplate reader at a wavelength of 600 nm. CLK-peptide in combination with ionizing radiation is found to inhibit GL261 cell migration on denatured collagen type-IV substantially when compared to controls."}, "[2]": {"tested_on": "Human melanoma cells M21", "experiment": "M21 melanoma cell adhesion to denatured collagen type-IV (Example 2)", "type": "cell-based", "settings": "M21 cells on denatured collagen type-IV; peptide 250 μg/ml", "description": "FIG. 1 is a chart which illustrates M21 human melanoma cell adhesion to untreated denatured type-IV collagen (NT), CLK-peptide treated denatured collagen type-IV, SLK-peptide treated denatured collagen type-IV, and SDR-peptide treated denatured collagen type-IV.\nSLK peptides bind to functional epitopes within denatured collagen type-IV that regulate cellular adhesion. Non-tissue culture treated 48-well plates were coated with denatured collagen type-IV. Human melanoma cells M21 (Scripps Research Institute, La Jolla, Calif.) were allowed to attach to the coated wells in the presence or absence of the synthetic peptides CLK, SLK, and SDR, each peptide was at a concentration of 250 μg/ml. SDR peptide is a commercially available peptide that was used as a control (QED Bioscience, Inc., San Diego, Calif.).\nHuman denatured collagen type-IV (25 μg/ml) was immobilized on 48-well nontissue culture treated plates. Wells were washed and incubated with 1% BSA (bovine serum albumin) in PBS (phosphate-buffered saline) for one hour at 37° C. Subconfluent […] were harvested, washed, and resuspended in adhesion buffer containing RPMI-1640 medium, 1 mM MgCl2, 0.2 mM MnCl2, and 0.5% BSA. […] Cell adhesion was quantified by measuring the optical density of eluted crystal violet at a wavelength of 600 nm."}, "[3]": {"tested_on": "P27KIP1", "experiment": "P27KIP1 expression by Western blot in tumor cells on denatured collagen", "type": "cell-based, murine", "settings": "24 hours", "description": "FIG. 11 Inhibition of Cellular Interactions by CLK-Peptide Enhances Expression of P27KIP1. […] A. Treatment of B16F10 melanoma cells. B. Treatment of GL261 glioblastoma cells.\nTo determine whether the effect on inhibition of tumor proliferation and invasion in vivo differs in malignant tumors and normal tissue, the effect of CLK-peptide on gene expression was analyzed. Genes that regulate cell cycle control, including Cyclin Dependent Kinase (CDK) inhibitors known to regulate cellular proliferation, were studied. Tumor cells (B16F10 melanoma and GL261 glioblastoma) were resuspended in adhesion buffer in the presence or absence of CLK-peptide or control. Cells were added to culture plates coated with denatured collagen and allowed to incubate for 24 hours. Total cell lysates were prepared and the relative levels of the CDK inhibitor P27^KIP1 was examined by Western Blot analysis."}, "[4]": {"tested_on": "Human melanoma (M21) cells", "experiment": "M21 cell adhesion, CLK-peptide combined with mAb HUIV26 (Example 10)", "type": "cell-based", "settings": "data not shown", "description": "FIG. 10 Effect of mAb HUIV26 in Combination with CLK-Peptide on Adhesion of M21 Cells to Denatured Collagen Type IV. Microtiter wells were coated with denatured collagen type-IV. M21 cells were allowed to bind to the coated substrates in the presence of CLK-peptide, mAb HUIV26, or both.\nThe effects of CLK-peptide, mAb HUIV26, and the combination of both on tumor cell adhesion were examined in vitro. Non-tissue culture treated 48-well microtiter plates were coated overnight at 4° C. with either native or denatured collagen type-IV (5 μg/ml). The plates were then blocked with 1% BSA in PBS for 1 hour at 37° C. Human melanoma (M21) cells at 10^5 cells/well in adhesion buffer were allowed to attach to the coated wells in the presence of either CLK-peptide (100 μg/ml), or mAb HUIV26 (100 μg/ml), or both together (CLK-peptide 25 μg/ml, mAb HUIV26 100 μg/ml). The cells were washed 2× with PBS, stained with crystal violet and destained with 10% acetic acid. Cell adhesion was quantified by measuring the O.D. of eluted dye at 600 nm. Data bars represent the mean O.D.±standard deviation from triplicate wells."}, "[5]": {"tested_on": "p21CIP1", "experiment": "p21CIP1 expression by Western blot in M21 cells", "type": "cell-based, human", "settings": "100 μg/ml", "description": "FIG. 12 Inhibition of Cellular Interactions by CLK-Peptide Enhances Expression of P21CIP1 in Human Melanoma (M21) Cells. Non-tissue culture treated 96-well plates were coated with denatured collagen type-IV (10 μg/ml). Human melanoma cells (M21) were allowed to proliferate in the presence or absence of CLK-Peptide or control peptide CTW (100 μg/ml) over a 3-day time course. Cells were then allowed to incubate for 12 hours in 1% serum-containing medium. Expression of P21 CIP1 and actin control were evaluated by Western blotting.\nTo examine whether the cryptic epitope recognized by CLK-peptide plays a role in cellular proliferation, in vitro proliferations assays were carried out (FIG. 13). In addition, the effects of CLK-peptide on expression of the CDK inhibitor p21^CIP1 were examined by Western blotting methods (FIG. 12). Non-tissue culture treated microtiter wells were coated with denatured collagen type-IV. Human M21 melanoma cells were resuspended in 1% RPMI in the presence or absence of CLK or control CTW-peptide (100 μg/ml). Proliferation was monitored by measuring the relative levels of mitochondrial dehydrogenase using a commercially available (WST-I) proliferation kit (Chemicon)."}},
  "data": [
    {"substance": "H-CLKQNGGNFSLG-OH [CLK-peptide, NH2-C-L-K-Q-N-G-G-N-F-S-L-G-COOH]", "values": [
      {"measurement": "inhibition of GL261 cell migration on denatured collagen type-IV in combination with ionizing radiation", "setting": "[1]", "value": "substantially"},
      {"measurement": "blockade of melanoma cell adhesion", "setting": "[2]", "value": "exceeded 95%"},
      {"measurement": "P27KIP1 level", "setting": "[3]; B16F10 melanoma cells on denatured collagen", "value": "dramatic upregulation"},
      {"measurement": "P27KIP1 level", "setting": "[3]; GL261 glioblastoma cells on denatured collagen", "value": "dramatic upregulation"},
      {"measurement": "effect on M21 cell adhesion to native collagen type-IV", "setting": "[4]", "value": "neither had any effect"},
      {"measurement": "expression of the CDK inhibitor p21CIP1", "setting": "[5]", "value": "up-regulated"}
    ]}
  ]
}
